The record followed here is PubChem BioAssay AID276 (DTP/NCI, 2004).

Several values for one entry are separate records, joined by “and”; a condition that tells them apart may be missing. Identical values can stand only once. Inconclusive results and toxic doses are left out.

The test has as its system B6C3F1 mice, Lewis lung carcinoma iv, survival T/C. Description: NCI In Vivo Anticancer Drug Screen. Data for tumor model Lewis Lung Carcinoma (intravenous) in B6C3F1 mice. Conditions: endpoint: median survival time, schedule: Q01DX009 (ip), higher = longer survival. In short, it runs like this:
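Antitumor activity is assessed in tumor-bearing mice by comparing survival after compound treatment against vehicle-treated controls, reported as a T/C ratio.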

The mark [1] stands for this setting: dose: 12.5 mg/kg/injection, vehicle: saline with Tween-80.
The mark [2] stands for this setting: dose: 25.0 mg/kg/injection, vehicle: saline with Tween-80.
Setting [3] is: dose: 50.0 mg/kg/injection, vehicle: saline with Tween-80.
The mark [4] stands for this setting: dose: 100.0 mg/kg/injection, vehicle: saline with Tween-80.
[5] abbreviates: dose: 200.0 mg/kg/injection, vehicle: saline with Tween-80.
Setting [6] is: dose: 400.0 mg/kg/injection, vehicle: saline with Tween-80.
The mark [7] stands for this setting: dose: 6.25 mg/kg/injection, vehicle: saline with Tween-80.
[8] abbreviates: dose: 12.5 mg/kg/injection, vehicle: Klucel (hydroxypropylcellulose) (HPC).
Setting [9] is: dose: 25.0 mg/kg/injection, vehicle: Klucel (hydroxypropylcellulose) (HPC).
The mark [10] stands for this setting: dose: 50.0 mg/kg/injection, vehicle: Klucel (hydroxypropylcellulose) (HPC).
The mark [11] stands for this setting: dose: 100.0 mg/kg/injection, vehicle: Klucel (hydroxypropylcellulose) (HPC).
Where [12] appears, read: dose: 200.0 mg/kg/injection, vehicle: Klucel (hydroxypropylcellulose) (HPC).
[13] abbreviates: dose: 400.0 mg/kg/injection, vehicle: Klucel (hydroxypropylcellulose) (HPC).
Setting [14] is: dose: 12.5 mg/kg/injection, vehicle: distilled water + Tween-80 + alcohol.
The mark [15] stands for this setting: dose: 25.0 mg/kg/injection, vehicle: distilled water + Tween-80 + alcohol.

`O=C(O)C1Cc2nc[nH]c2CN1CO` (configuration not stated): the T/C by setting is: under setting [1], 109 % of control; under setting [2], 104 % of control; under setting [3], 99 % of control; under setting [4], 114 % of control; under setting [5], 103 % of control; under setting [6], 98 % of control.

As to `Nc1nc2ccc(NCc3ccc(C(=O)NC(CCC(=O)O)C(=O)O)cc3)cc2c(=O)[nH]1` (configuration not stated), the T/C runs as follows: under setting [7], 111 % of control; under setting [1], 97 % of control; under setting [2], 100 % of control; under setting [3], 116 % of control; under setting [4], 119 % of control.

As for `CC(C)(C)C1CCCCC1`, the T/C is, setting by setting: under setting [8], 92 % of control; under setting [9], 93 % of control; under setting [10], 108 % of control; under setting [11], 101 % of control; under setting [12], 103 % of control; under setting [13], 96 % of control.

Consider `COc1ccc2[nH]c3ccc4cc[n+](CCN5CCC(C6CCN(CC[n+]7ccc8ccc9[nH]c%10ccc(OC)cc%10c9c8c7)CC6)CC5)cc4c3c2c1`, for which the T/C by setting is: (dose: 6.25 mg/kg/injection, vehicle: Klucel (hydroxypropylcellulose) (HPC)) 106 % of control; under setting [8], 91 % of control and 103 % of control; under setting [9], 99 % of control.

In the case of `CCCCCCCCCCCCCCCCCC(=O)Nc1ccn(C2OC(CO)C(O)C2O)c(=O)n1` (configuration not stated), the T/C runs as follows: (dose: 12.5 mg/kg/injection, vehicle: suspension in saline) 103 % of control and 109 % of control; (dose: 25.0 mg/kg/injection, vehicle: suspension in saline) 119 % of control; (dose: 50.0 mg/kg/injection, vehicle: suspension in saline) 160 % of control and 164 % of control.

As to `C/C=C1\C[C@@H]2C(OC)Nc3cc(O)c(OC)cc3C(=O)N2C1` (some centres not stated), the T/C (dose: 0.03 mg/kg/injection, vehicle: saline) was 100 % of control; the T/C (dose: 0.03 mg/kg/injection, vehicle: suspension in saline) is 92 % of control; the T/C (dose: 0.06 mg/kg/injection, vehicle: saline) is 110 % of control; the T/C (dose: 0.06 mg/kg/injection, vehicle: suspension in saline) was 96 % of control; the T/C (dose: 0.12 mg/kg/injection, vehicle: saline) was 101 % of control; the T/C (dose: 0.12 mg/kg/injection, vehicle: suspension in saline) was 97 % of control. Moreover, the T/C reads like this: (dose: 0.25 mg/kg/injection, vehicle: saline) 108 % of control; (dose: 0.25 mg/kg/injection, vehicle: suspension in saline) 104 % of control; (dose: 0.5 mg/kg/injection, vehicle: saline) 104 % of control; (dose: 0.5 mg/kg/injection, vehicle: suspension in saline) 105 % of control.

With `O=[N+]([O-])c1ccc(-n2[nH]nnc2=S)cc1`, the T/C under setting [1] is 101 % of control; the T/C under setting [2] is 96 % of control; the T/C under setting [3] was 103 % of control; the T/C under setting [4] was 95 % of control; the T/C under setting [5] was 94 % of control.

`COc1cc(NCc2ccc3nc(N)nc(N)c3c2C)cc(OC)c1OC`: the T/C runs as follows: (dose: 3.12 mg/kg/injection, vehicle: water) 94 % of control; (dose: 6.25 mg/kg/injection, vehicle: water) 102 % of control; (dose: 12.5 mg/kg/injection, vehicle: water) 97 % of control and 124 % of control; (dose: 25.0 mg/kg/injection, vehicle: water) 101 % of control and 111 % of control; (dose: 50.0 mg/kg/injection, vehicle: water) 113 % of control and 117 % of control.

On to `C[Si](C)(C)OSc1ccccc1[N+](=O)[O-]`, for which the T/C was 120 % of control under setting [8]; 110 % of control under setting [9]; 102 % of control under setting [10]; 102 % of control under setting [11]; 102 % of control under setting [12]; 104 % of control under setting [13].

For `O=NN(CCCl)C(=O)NC1[C@H](O)CCC[C@@H]1O` (some centres not stated), the T/C reads like this: (dose: 0.32 mg/kg/injection, vehicle: saline) 96 % of control; (dose: 0.63 mg/kg/injection, vehicle: saline) 111 % of control; (dose: 1.25 mg/kg/injection, vehicle: saline) 103 % of control and 116 % of control; (dose: 5.0 mg/kg/injection, vehicle: saline) 163 % of control and 173 % of control; (dose: 10.0 mg/kg/injection, vehicle: saline) 98 % of control and 118 % of control.

Consider `CC1=C/C(O)CC(=O)Cc2nc(co2)C(=O)N2CCC=C2C(=O)OC(C(C)C)C(C)/C=C\C(=O)NC/C=C\1` (configuration not stated), for which the T/C is, setting by setting: under setting [9], 98 % of control; under setting [10], 104 % of control; under setting [11], 92 % of control; under setting [12], 97 % of control; under setting [13], 104 % of control.

With `O=C(O)CC(NC(=O)CP(=O)(O)O)C(=O)O` (configuration not stated), the T/C reads like this: (dose: 12.5 mg/kg/injection, vehicle: saline) 99 % of control; (dose: 25.0 mg/kg/injection, vehicle: saline) 103 % of control; (dose: 100.0 mg/kg/injection, vehicle: saline) 158 % of control; (dose: 200.0 mg/kg/injection, vehicle: saline) 187 % of control.

Consider `CCSC(=O)N1c2ccc(OC)cc2C=CC1C#N` (configuration not stated), for which the T/C under setting [1] is 98 % of control; the T/C under setting [2] was 113 % of control; the T/C under setting [3] was 99 % of control; the T/C under setting [4] is 104 % of control; the T/C under setting [5] was 110 % of control; the T/C under setting [6] is 108 % of control.

Regarding `CCOc1cc2c(cc1C(C)c1ccc(OC)cc1)OCO2` (configuration not stated), the T/C by setting is: under setting [14], 104 % of control; (dose: 12.5 mg/kg/injection, vehicle: distilled water + alcohol) 106 % of control; under setting [15], 103 % of control; (dose: 25.0 mg/kg/injection, vehicle: distilled water + alcohol) 104 % of control; (dose: 50.0 mg/kg/injection, vehicle: DMSO) 102 % of control; (dose: 50.0 mg/kg/injection, vehicle: distilled water + Tween-80 + alcohol) 103 % of control. Moreover, the T/C was 112 % of control (dose: 50.0 mg/kg/injection, vehicle: distilled water + alcohol); 108 % of control (dose: 100.0 mg/kg/injection, vehicle: distilled water + alcohol); 110 % of control (dose: 200.0 mg/kg/injection, vehicle: distilled water + alcohol).

Consider `Cc1cc(NCCCCCCNc2cc(C)nc3cc(N(C)C)ccc23)c2ccc(N(C)C)cc2n1`, for which the T/C is, setting by setting: (dose: 3.12 mg/kg/injection, vehicle: distilled water + Tween-80 + alcohol) 98 % of control; (dose: 6.25 mg/kg/injection, vehicle: distilled water + Tween-80 + alcohol) 100 % of control; under setting [14], 93 % of control; under setting [15], 102 % of control.

Consider `NC(=O)/C=C/C(=O)c1c(Cl)cccc1Cl`, for which the T/C is, setting by setting: (dose: 0.79 mg/kg/injection, vehicle: saline with Tween-80) 111 % of control; (dose: 1.56 mg/kg/injection, vehicle: saline with Tween-80) 88 % of control; (dose: 3.12 mg/kg/injection, vehicle: saline with Tween-80) 117 % of control; under setting [7], 103 % of control; under setting [1], 108 % of control.
